From US8697376B2, “Synthetic protease substrates, assay methods using such substrates and kits for practicing the assay” (Lifesensors, INc., priority 2010, dated 2014) come the findings set out here.

The assay deals with DUBs immobilized on a Nexterion slide H. In words: Microarray-based assay: cleavage and label transfer to immobilized DUBs. The assay is classed as biochemical. To be noted: 35 DUBs arrayed as triplicate spots; FIG. 5. Here is the method:
Since one of the primary uses for the substrates of the invention is localization of active deubiquitylases immobilized in a microarray-type format, i.e. solid phase assay, each of the substrates was tested for its ability to be cleaved and subsequently transfer label to DUBs immobilized on a Nexterion slide H (Schott). Thirty-five (35) DUBs were arrayed as a series of triplicate spots on the slide (see Table 6 for a map of the array) Three identical arrays were constructed on each slide. Several features that were common amongst each array on a given slide and between slides are shown boxed in red and numbered 1-7. […] It should be noted that the enzymes (and antibodies) were coupled 1) at different concentrations and 2) by covalent attachment through surface exposed lysines.

Consider ubiquitin-vinylsulfone, for which the “immobilized enzymes labeled (positive features) on the microarray” value was “all of the immobilized proteins were labeled”.
